Test results from patent publication US20250026721A1, “COMPOUNDS AND METHODS FOR MODULATING RAS-PI3K” (Vividion Therapeutics, Inc., priority 2023, published 2025).

Tests used:
PIK3CA_C242 = target: T1, PIK3CA_C242 (Homo sapiens, UniProt P42336); experiment: Proteomic TE50 (IA-DTB / TMT mass spectrometry) in Jurkat cell lysate; format: binding; settings: 1 hour at rt, 7-point dose response
T1 construct: endogenous in cells; host or cells: Jurkat cell lysate
Procedure, shortened: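 Cysteine engagement was read by targeted TMT MS3 of the IA-DTB-labelled, streptavidin-enriched C242 tryptic peptide. Beforehand, Jurkat lysate was exposed to a 7-point 1:5 compound series for 1 h at rt, then to 200 μM IA-DTB for 1 h. Reporter S/N curves gave TE50.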

PIK3CA = target: T2, PIK3CA (Homo sapiens, UniProt P42336); experiment: In vitro ELISA target engagement assay for PIK3CA in Jurkat cellular lysate (competition with PIK3CA Biotin Probe); format: binding; settings: 1 hour at rt, then 500 nM PIK3CA Biotin Probe, read-out: Elisa Target Engagement Assay (TE50)
T2 construct: endogenous in cells; host or cells: Jurkat cell lysate
Procedure, shortened: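 Competition format in Jurkat lysate: compound (serial dilutions, top 200 μM) for 1 h at rt, then 500 nM final biotinylated PIK3CA probe for 1 h at rt. Sandwich ELISA with capture antibody and Neutravidin-HRP luminescence read-out measured probe-labelled PIK3CA, giving TE50.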

T2 sequence (P42336 whole entry): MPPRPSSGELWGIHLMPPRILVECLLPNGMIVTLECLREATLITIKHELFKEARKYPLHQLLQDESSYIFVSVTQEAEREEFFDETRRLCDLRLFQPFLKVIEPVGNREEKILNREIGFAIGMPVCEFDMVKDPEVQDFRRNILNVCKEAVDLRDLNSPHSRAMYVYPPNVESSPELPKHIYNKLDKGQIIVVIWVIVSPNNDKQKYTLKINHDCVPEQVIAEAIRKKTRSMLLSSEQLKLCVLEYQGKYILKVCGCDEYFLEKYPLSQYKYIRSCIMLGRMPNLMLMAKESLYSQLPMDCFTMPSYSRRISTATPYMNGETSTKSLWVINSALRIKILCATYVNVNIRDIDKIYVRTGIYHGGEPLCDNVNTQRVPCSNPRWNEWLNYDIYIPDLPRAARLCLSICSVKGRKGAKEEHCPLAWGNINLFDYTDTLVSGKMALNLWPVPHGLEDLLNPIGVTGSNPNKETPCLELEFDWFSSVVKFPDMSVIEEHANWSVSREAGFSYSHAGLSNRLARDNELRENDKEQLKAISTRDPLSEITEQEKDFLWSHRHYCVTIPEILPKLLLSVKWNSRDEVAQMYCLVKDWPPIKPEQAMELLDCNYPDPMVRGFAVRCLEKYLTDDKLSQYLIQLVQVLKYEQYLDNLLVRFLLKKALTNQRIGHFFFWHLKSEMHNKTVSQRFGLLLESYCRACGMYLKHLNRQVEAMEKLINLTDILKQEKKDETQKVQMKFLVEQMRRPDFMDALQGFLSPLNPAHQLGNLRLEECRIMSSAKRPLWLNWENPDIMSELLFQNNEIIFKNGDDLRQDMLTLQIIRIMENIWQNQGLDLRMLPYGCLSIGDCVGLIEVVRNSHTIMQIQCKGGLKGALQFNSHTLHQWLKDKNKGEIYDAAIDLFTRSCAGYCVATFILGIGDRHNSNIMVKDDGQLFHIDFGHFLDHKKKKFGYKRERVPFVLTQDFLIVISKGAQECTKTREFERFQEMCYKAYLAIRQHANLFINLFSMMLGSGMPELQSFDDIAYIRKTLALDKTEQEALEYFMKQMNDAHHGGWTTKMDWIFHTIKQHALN
T2 sequence (P27986 whole entry partner): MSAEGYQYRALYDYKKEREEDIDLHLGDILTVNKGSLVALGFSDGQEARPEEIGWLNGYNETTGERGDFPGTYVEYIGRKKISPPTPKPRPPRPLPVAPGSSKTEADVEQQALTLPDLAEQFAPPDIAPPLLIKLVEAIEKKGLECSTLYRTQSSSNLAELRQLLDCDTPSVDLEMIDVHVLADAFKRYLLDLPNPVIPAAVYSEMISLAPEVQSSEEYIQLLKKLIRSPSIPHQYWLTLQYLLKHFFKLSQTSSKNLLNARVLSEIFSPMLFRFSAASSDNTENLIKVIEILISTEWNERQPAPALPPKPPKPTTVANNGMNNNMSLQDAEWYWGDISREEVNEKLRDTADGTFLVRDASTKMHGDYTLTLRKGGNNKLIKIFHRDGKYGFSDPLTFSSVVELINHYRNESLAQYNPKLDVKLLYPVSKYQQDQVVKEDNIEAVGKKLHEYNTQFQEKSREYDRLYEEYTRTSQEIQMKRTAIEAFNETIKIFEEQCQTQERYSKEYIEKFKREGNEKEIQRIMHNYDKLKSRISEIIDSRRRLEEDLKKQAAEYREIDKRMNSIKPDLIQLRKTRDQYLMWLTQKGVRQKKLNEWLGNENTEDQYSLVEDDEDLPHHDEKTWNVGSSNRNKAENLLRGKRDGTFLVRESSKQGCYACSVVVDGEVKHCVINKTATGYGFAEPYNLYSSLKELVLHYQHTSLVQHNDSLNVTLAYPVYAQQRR
T1 sequence (P42336 whole entry): as the sequence (P42336 whole entry) above
T1 sequence (P27986 whole entry partner): as the sequence (P27986 whole entry partner) above

SMILES | IC50 (PIK3CA_C242) [nM] | IC50 (PIK3CA) [nM]
C[C@@H](/C=C\S(C)(=O)=O)NC(=O)C1(F)CCN(S(=O)(=O)c2ccc(Cl)cc2-c2cccc(OCc3cccc(Cl)c3)c2)CC1 [Compound 266, (S,Z)-1-((5-chloro-3′-((3-chlorobenzyl)oxy)-[1,1′-biphenyl]-2-yl)sulfonyl)-4-fluoro-N-(4-(methylsulfonyl)but-3-en-2-yl)piperidine-4-carboxamide] | 600 | 750
C[C@@H](/C=C\S(C)(=O)=O)NC(=O)C1(F)CCN(S(=O)(=O)c2ccc(Cl)cc2-c2cccc(OCc3ccccn3)c2)CC1 [Compound 269, (S,Z)-1-((5-chloro-3′-(pyridin-2-ylmethoxy)-[1,1′-biphenyl]-2-yl)sulfonyl)-4-fluoro-N-(4-(methylsulfonyl)but-3-en-2-yl)piperidine-4-carboxamide] | 63 | 90
COc1ccc(Cl)c(-c2cc(Cl)ncc2S(=O)(=O)N2CCC(F)(C(=O)N[C@@H](C)/C=C\S(C)(=O)=O)CC2)c1 [Compound 271, (S,Z)-1-((6-chloro-4-(2-chloro-5-methoxyphenyl)pyridin-3-yl)sulfonyl)-4-fluoro-N-(4-(methylsulfonyl)but-3-en-2-yl)piperidine-4-carboxamide] | 209 | 170
C[C@H](/C=C\S(C)(=O)=O)NC(=O)C1(F)CCN(S(=O)(=O)c2cn(C)c(=O)cc2-c2ccccc2Cl)CC1 [Compound 274, (R,Z)-1-((4-(2-chlorophenyl)-1-methyl-6-oxo-1,6-dihydropyridin-3-yl)sulfonyl)-4-fluoro-N-(4-(methylsulfonyl)but-3-en-2-yl)piperidine-4-carboxamide] | 570 | 1100
C[C@H](/C=C\S(C)(=O)=O)NC(=O)C1(F)CCN(S(=O)(=O)c2cc(=O)n(C)cc2-c2ccccc2Cl)CC1 [Compound 275, (R,Z)-1-((5-(2-chlorophenyl)-1-methyl-2-oxo-1,2-dihydropyridin-4-yl)sulfonyl)-4-fluoro-N-(4-(methylsulfonyl)but-3-en-2-yl)piperidine-4-carboxamide] | 910 | 1300
C[C@H](/C=C\S(C)(=O)=O)NC(=O)C1(F)CCN(S(=O)(=O)c2cnc(Br)cc2-c2ccccc2Cl)CC1 [Compound 277, (R,Z)-1-((6-bromo-4-(2-chlorophenyl)pyridin-3-yl)sulfonyl)-4-fluoro-N-(4-(methylsulfonyl)but-3-en-2yl)piperidine-4-carboxamide] | 82 | 97
CCCNC(=O)c1cccc(-c2cc(Cl)ccc2S(=O)(=O)N2CCC(F)(C(=O)N[C@@H](C)/C=C\S(C)(=O)=O)CC2)c1 [Compound 279, (S,Z)-1-((5-chloro-3′-(propylcarbamoyl)-[1,1′-biphenyl]-2-yl)sulfonyl)-4-fluoro-N-(4-(methylsulfonyl)but-3-en-2-yl)piperidine-4-carboxamide] | 1530 | 1000
